Data on one molecule can be found in EP0498222A1, “Novel peptides” (SUMITOMO CHEMICAL COMPANY LIMITED, priority 1991, dated 1992).

Structures are written as SMILES. Positions of bridges follow the written chain, without caps; N, C: chain ends. Residues, ends and D or L forms follow the SMILES beside them.

Experiment [1] has as its system unparasitized last instar larvae of Pseudaletia separata. As to the kind of experiment: Insect development controlling activity (growth stage checked at 24-hour intervals). The class given is in vivo. As to conditions: 7 picomoles injected on day 1 and day 2; control Ringer's solution. As to the method: The purified peptide I-a was dissolved with Ringer's solution and injected, at a dose of 7 picomoles, into unparasitized last instar larvae of Pseudaletia separata on day 1 and day 2. Then the growth stage (larva, prepupa, pupa, or dead) of each larva was checked at 24-hour intervals and the number of individuals in each stage was recorded. Control larvae were injected with Ringer's solution alone.

In experiment [2] the test system is last instar larvae of Pseudaletia separata. As to the kind of experiment: Effect on growth (body weight) of last instar larvae after injection. The class given is in vivo. As to conditions: 7 picomoles injected on day 0, day 1 and day 2 of last instar; weight checked until day 3; control about 2.5 times day 0 weight on day 3. How it is done:
To examine the effect of peptide I-a on the growth of last instar larvae of Pseudaletia separata, last instar larvae of P. separata were injected with 7 picomoles of peptide I-a for consecutive three days (day 0, day 1 and day 2). They were reared on an artificial diet and the weight of each larva was checked until day 3. […] The open circles ( ⃝) indicate the body weights of the last instar larvae injected with 7 picomoles of peptide I-a on day 0, day 1 and day 2 while the closed circles (●) indicate the body weights of last instar larvae injected with Ringer's solution on day 0, day 1 and day 2.

The next experiment deals with JH esterase. Put plainly: JH esterase activity assay of hemolymph from injected larvae, (10-3H)JH I as substrate. The class given is in vivo, Pseudaletia separata. As to conditions: predetermined doses injected on day 1 and day 2; hemolymph collected on day 3. How it is done: The purified peptide I-a was diluted with Ringer's solution and injected, at a predetermined dose, into unparasitized last instar larvae of Pseudaletia separata on day 1 and day 2. The larvae were further reared on an artificial diet. On day 3, hemolymph was prepared from the larvae and centrifuged (500 x g, 4°C, 5 minutes). The supernatant thus collected was subjected to JH esterase activity assay. (10-³H)JH I was used as the substrate for activity assay and the JH-metabolizing activity was estimated based on the proportion of JH acid to the total product formed under the action of JH esterase.

Take `CSCC[C@@H]1NC(=O)[C@H](Cc2ccc(O)cc2)NC(=O)CNC(=O)[C@H](C)NC(=O)[C@H](C(C)C)NC(=O)[C@@H](NC(=O)CNC(=O)CNC(=O)[C@H](CO)NC(=O)[C@H](Cc2ccccc2)NC(=O)[C@H](CC(N)=O)NC(=O)[C@@H](N)CCC(=O)O)CSSC[C@@H](C(=O)N[C@@H](CCCCN)C(=O)N2CCC[C@H]2C(=O)N[C@H](C(=O)N[C@@H](Cc2ccccc2)C(=O)N[C@@H](Cc2ccc(O)cc2)C(=O)N[C@@H](CCC(N)=O)C(N)=O)[C@@H](C)O)NC(=O)[C@H](CCCNC(=N)N)NC(=O)CNC(=O)[C@H](CC(=O)O)NC(=O)[C@@H]2CCCN2C(=O)[C@H]([C@@H](C)O)NC(=O)[C@H](CCCNC(=N)N)NC1=O` [peptide I-a] (H-ENFSGGCVAGYMRTPDGRCKPTFYQ-NH2; disulfide 7-19): in experiment [1], the “prepupal stage came later than in control larvae” value is listed as 2 days and the “pupation later than in control larvae” value is listed as “more than 2 days”. Also, the body weight change entry in experiment [2] is “only slight increases in body weight”. Moreover, in the experiment on JH esterase, the JH esterase activity entry was “repressed the JH esterase activity in a dose dependent manner”.
